Results taken from patent publication US8354403B2, “Pyrrolidine derived beta 3 adrenergic receptor agonists” (Merck Sharp & Dohme Corp., priority 2009, dated 2013).
Like-named read-outs stand apart in the source and are kept apart here.

Target: T1, human β3 adrenergic receptor (Homo sapiens, UniProt P13945)
T1 construct: expressed in transfected cells; host or cells: Chinese hamster ovary (CHO) cells, stably transfected
Experiment: Beta-3 agonist in vitro functional assay: cAMP production (LANCE TR-FRET) in CHO cells stably transfected with the cloned β3 receptor
Type: cell-based
Procedure: Chinese hamster ovary (CHO) cells, stably transfected with the cloned β-adrenergic receptor (β1, β2 or β3) are harvested after 3 days of subculturing. Harvesting of cells is done with Enzyme-free Dissociation Media (Specialty Media). Cells are then counted and resuspended in assay buffer (Hank's Balanced salt solution supplemented with 5 mM HEPES, […]) containing a phosphodiesterase inhibitor (IBMX, 0.6 mM). The reaction is initiated by mixing 6,000 cells in 6 μL with 6 μL Alexa Fluor labeled cAMP antibody (LANCE™ kit) which is then added to an assay well containing 12 μL of compound (diluted in assay buffer to 2× final concentration). The reaction proceeds for 30 minutes at RT and is terminated by the addition of 24 ul detection buffer (LANCE™ kit). The assay plate is then incubated for 1 h at RT and time-resolved fluorescence measured on a Perkin Elmer Envision reader or equivalent. The unknown cAMP level is determined by comparing fluorescence levels to a cAMP standard curve.
The non-selective, full agonist β-adrenergic ligand isoproterenol is used at all three receptors to determine maximal stimulation. […] Data are analyzed using Microsoft Excel and Graphpad Prism or an internally developed data analysis software package.

[1] = Table 8, Beta-3 agonist in vitro functional assay, read-out: Human β3 agonist functional activity
[2] = Table 4, cAMP, CHO cells, read-out: Human β3 agonist functional activity
[3] = Table 12, human β3 functional activity given as ranges, read-out: Human β3 agonist functional activity
[4] = Table 10, Beta-3 agonist in vitro functional assay, read-out: Human β3 agonist functional activity
[5] = Table 9, Beta-3 agonist in vitro functional assay, read-out: Human β3 agonist functional activity
[6] = Table 5, cAMP, CHO cells, read-out: Human β3 agonist functional activity
[7] = Table 11, cAMP, CHO cells, read-out: Human β3 agonist functional activity

T1 sequence (P13945 whole entry): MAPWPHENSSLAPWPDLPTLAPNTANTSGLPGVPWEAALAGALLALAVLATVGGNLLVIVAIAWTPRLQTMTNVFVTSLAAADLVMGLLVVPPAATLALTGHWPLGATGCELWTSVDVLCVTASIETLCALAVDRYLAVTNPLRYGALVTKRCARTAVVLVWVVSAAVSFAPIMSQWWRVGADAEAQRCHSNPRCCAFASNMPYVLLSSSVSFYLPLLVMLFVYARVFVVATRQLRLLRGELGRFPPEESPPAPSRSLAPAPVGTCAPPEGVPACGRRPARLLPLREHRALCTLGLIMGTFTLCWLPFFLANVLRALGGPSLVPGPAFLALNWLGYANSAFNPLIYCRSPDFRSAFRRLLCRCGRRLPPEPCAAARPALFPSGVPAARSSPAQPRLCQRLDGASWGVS

Compound CC1(C)CC2(CCN(C(=O)c3ccc(C[C@@H]4CC[C@H]([C@H](O)c5cccnc5)N4)cc3)CC2)C(=O)O1 [Example 294] has an EC50 [1] of 1 to 9.9 nM.

O=C(c1ccc(C[C@@H]2CC[C@H]([C@H](O)c3ccccc3)N2)cc1)N1CC2CC(n3ccnn3)CC2C1 (stereo partly shown) [Example 21] was tested, and the EC50 [2] was 10 to 99.9 nM.

For CC(C)(C)C1CC2(CCN(C(=O)c3ccc(CC4CCC(C(O)c5ccccc5)N4)cc3)CC2)C(=O)O1 (single isomer, unassigned) [Example 570], the EC50 [3] was 1 to 9.9 nM.

CC1(C)COC(=O)C12CCN(C(=O)c1ccc(C[C@@H]3CC[C@H]([C@H](O)c4ccccc4)N3)cc1)CC2 [Example 298] showed an EC50 [1] of 1 to 9.9 nM.

For CC(C(=O)N1CCC(O)C1)N1CCN(C(=O)c2ccc(C[C@@H]3CC[C@H]([C@H](O)c4ccccc4)N3)cc2)CC1 (stereo partly shown) [Example 477], the EC50 [4] was 100 to 999 nM.

O=C(c1ccc(C[C@@H]2CC[C@H]([C@H](O)c3ccccc3)N2)cc1)N1CCN(Cc2nccc3ccccc23)CC1 [Example 429] showed an EC50 [5] of 10 to 99.9 nM.

Compound CC(c1cccnn1)N1CCN(C(=O)c2ccc(CC3CCC(C(O)c4ccccc4)N3)cc2)CC1 (single isomer, unassigned) [Example 591] has an EC50 [3] of 10 to 99.9 nM.

Compound COC[C@H](C)NC(=O)C(C)N1CCN(C(=O)c2ccc(C[C@@H]3CC[C@H]([C@H](O)c4ccccc4)N3)cc2)CC1 (stereo partly shown) [Example 446] has an EC50 [4] of 10 to 99.9 nM.

With CS(=O)(=O)c1ccccc1OC1CCN(C(=O)c2ccc(C[C@@H]3CC[C@H]([C@H](O)c4ccccc4)N3)cc2)CC1 [Example 156] the EC50 [6] was 10 to 99.9 nM.

O=C(c1ccc(C[C@@H]2CC[C@H]([C@H](O)c3ccccc3)N2)cc1)N1CCN(C(=O)c2ccco2)CC1 [Example 349] gave an EC50 [5] of 100 to 999 nM.

Compound CC(C)(C)C1CC2(CCN(C(=O)c3ccc(CC4CCC(C(O)c5ccccc5)N4)cc3)CC2)C(=O)O1 (single isomer, unassigned) [Example 569] has an EC50 [3] of 1 to 9.9 nM.

O=C(c1ccc(C[C@@H]2CC[C@H]([C@H](O)c3ccccc3)N2)cc1)N1CCN(c2ncccc2-c2ccc(F)cc2)CC1 [Example 369] showed an EC50 [5] of 10 to 99.9 nM.

O=C(c1ccc(C[C@@H]2CC[C@H]([C@H](O)c3ccccc3)N2)cc1)N1CCC2(CCOC2=O)CC1 [Example 239, 8-[4-({(2S,5R)-5-[(R)-hydroxy(phenyl)methyl]pyrrolidin-2-yl}methyl)benzoyl]-2-oxa-8-azaspiro[4.5]decan-1-one] showed an EC50 (given as a range, cAMP, CHO cells, read-out: human β3 functional activity) of 1 to 9.9 nM.

O=C(c1ncc(-c2cccc(F)n2)o1)C1CCN(C(=O)c2ccc(C[C@@H]3CC[C@H]([C@H](O)c4ccccc4)N3)cc2)CC1 [Example 121] gave an EC50 [6] of 1 to 9.9 nM.

Compound O=C(c1ccc(C[C@@H]2CC[C@H]([C@H](O)c3ccccc3)N2)cc1)N1CCC(n2cc(-c3ccccc3)nn2)CC1 [Example 80] has an EC50 [6] of 100 to 999 nM.

CC(C(=O)N(C)C(C1CC1)C1CC1)N1CCN(C(=O)c2ccc(C[C@@H]3CC[C@H]([C@H](O)c4ccccc4)N3)cc2)CC1 (stereo partly shown) [Example 523] gave an EC50 [4] of 10 to 99.9 nM.

Work on CC1(C)OCC2(CCN(C(=O)c3ccc(C[C@@H]4CC[C@H]([C@H](O)c5ccccc5)N4)cc3)CC2)C1O (stereo partly shown) [Example 313] yielded an EC50 [1] of 100 to 999 nM.

For CN1CCCC2(CCN(C(=O)c3ccc(C[C@@H]4CC[C@H]([C@H](O)c5ccccc5)N4)cc3)CC2)C1=O [Example 257], the EC50 [1] was 100 to 999 nM.

With COC1CN(C(=O)C(C)N2CCN(C(=O)c3ccc(C[C@@H]4CC[C@H]([C@H](O)c5ccccc5)N4)cc3)CC2)C1 (stereo partly shown) [Example 473] the EC50 [4] was 10 to 99.9 nM.

In the case of Cn1nnnc1CN1CCN(C(=O)c2ccc(C[C@@H]3CC[C@H]([C@H](O)c4ccccc4)N3)cc2)CC1 [Example 399], the EC50 [5] is reported as 10 to 99.9 nM.

Compound O=C(O)[C@@H]1CCCN1C(=O)CN1CCN(C(=O)c2ccc(C[C@@H]3CC[C@H]([C@H](O)c4ccccc4)N3)cc2)CC1 [Example 391] has an EC50 [5] of 100 to 999 nM.

CC1CCCN(C(=O)C(C)N2CCN(C(=O)c3ccc(C[C@@H]4CC[C@H]([C@H](O)c5ccccc5)N4)cc3)CC2)C1 (stereo partly shown) [Example 486] showed an EC50 [4] of 10 to 99.9 nM.

CC(C(=O)NCC1CCCO1)N1CCN(C(=O)c2ccc(C[C@@H]3CC[C@H]([C@H](O)c4ccccc4)N3)cc2)CC1 (stereo partly shown) [Example 455] gave an EC50 [4] of 10 to 99.9 nM.

In the case of Cc1nnc(C(C)N2CCN(C(=O)c3ccc(C[C@@H]4CC[C@H]([C@H](O)c5ccccc5)N4)cc3)CC2)o1 (stereo partly shown) [Example 424], the EC50 [5] is reported as 100 to 999 nM.

Work on O=C1OC2(CCN(C(=O)c3ccc(C[C@@H]4CC[C@H]([C@H](O)c5ccccc5)N4)cc3)CC2)Cc2ccccc21 [Example 333] yielded an EC50 [1] of 1 to 9.9 nM.

In the case of CC1(C)CC2(CCN(C(=O)c3ccc(C[C@@H]4CC[C@H]([C@H](O)c5ccccc5)N4)cc3)CC2)OC1=O [Example 279], the EC50 [1] is reported as 10 to 99.9 nM.

Compound CCCCN(C)C(=O)C(C)N1CCN(C(=O)c2ccc(C[C@@H]3CC[C@H]([C@H](O)c4ccccc4)N3)cc2)CC1 (stereo partly shown) [Example 514] has an EC50 [4] of 10 to 99.9 nM.

O=C(c1ccc(C[C@@H]2CC[C@H]([C@H](O)c3cccnc3)N2)cc1)N1CCC2(CC1)SCc1ccccc12 [Example 301] was tested, and the EC50 [1] was 100 to 999 nM.

Work on O=C(NC1CCN(C(=O)c2ccc(C[C@@H]3CC[C@H]([C@H](O)c4ccccc4)N3)cc2)CC1)OCc1ccccc1 [Example 68] yielded an EC50 [6] of 10 to 99.9 nM.

Compound O=C(c1ccc(C[C@@H]2CC[C@H]([C@H](O)c3ccccc3)N2)cc1)N1CCN(Cc2c(F)cccc2F)CC1 [Example 411] has an EC50 [5] of 1 to 9.9 nM.

With CC(C)C1CC2(CCN(C(=O)c3ccc(CC4CCC(C(O)c5ccccc5)N4)cc3)CC2)C(=O)O1 (single isomer, unassigned) [Example 568] the EC50 [3] was 10 to 99.9 nM.

CCOC(=O)C1CCN(C(=O)c2ccc(C[C@@H]3CC[C@H]([C@H](O)c4ccccc4)N3)cc2)CC1 [Example 118] showed an EC50 [6] of 10 to 99.9 nM.

Work on O=C(c1ccc(C[C@@H]2CC[C@H]([C@H](O)c3ccccc3)N2)cc1)N1CCC(N2C(=O)OCc3ccccc32)CC1 [Example 69] yielded an EC50 [6] of 1 to 9.9 nM.

Compound C[C@H]1CN(C(=O)c2ccc(C[C@@H]3CC[C@H]([C@H](O)c4ccccc4)N3)cc2)CCN1Cc1nc2ccccc2o1 [Example 531] has an EC50 [7] of 10 to 99.9 nM.

O=C(c1ccc(C[C@@H]2CC[C@H]([C@H](O)c3ccccc3)N2)cc1)N1CCN(c2cc3ccccc3cn2)CC1 [Example 374] showed an EC50 [5] of 100 to 999 nM.

O=C(c1ccc(C[C@@H]2CC[C@H]([C@H](O)c3cccnc3)N2)cc1)N1CCC(n2nccn2)CC1 [Example 94] gave an EC50 [6] of 100 to 999 nM.

With O=C(c1ccc(C[C@@H]2CC[C@H]([C@H](O)c3ccccc3)N2)cc1)N1CCC2(CC1)C(=O)NCC2c1ccccn1 (stereo partly shown) [Example 266] the EC50 [1] was 1 to 9.9 nM.

In the case of O=C(c1ccc(C[C@@H]2CC[C@H]([C@H](O)c3ccccc3)N2)cc1)N1CCN(c2ccc3c(c2)OCCO3)CC1 [Example 354], the EC50 [5] is reported as 100 to 999 nM.

Compound O=C(c1ccc(C[C@@H]2CC[C@H]([C@H](O)c3cccnc3)N2)cc1)N1CCC2(CCOC2=O)CC1 [Example 292] has an EC50 [1] of 10 to 99.9 nM.

Work on CCNC(=O)C(C)N1CCN(C(=O)c2ccc(C[C@@H]3CC[C@H]([C@H](O)c4ccccc4)N3)cc2)CC1 (stereo partly shown) [Example 436] yielded an EC50 [4] of 100 to 999 nM.

With O=C(c1ccc(C[C@@H]2CC[C@H]([C@H](O)c3ccccc3)N2)cc1)N1CC2CC(n3cncn3)CC2C1 (stereo partly shown) [Example 22] the EC50 [2] was 100 to 999 nM.

With CC(c1ccccn1)N1CC2CCC1CN2C(=O)c1ccc(CC2CCC(C(O)c3ccccc3)N2)cc1 (stereo not shown) [Example 542] the EC50 [7] was 100 to 999 nM.

For O=C(c1ccc(C[C@@H]2CC[C@H]([C@H](O)c3ccccc3)N2)cc1)N1CCN(c2ccccc2O)CC1 [Example 359], the EC50 [5] was 10 to 99.9 nM.

O=C(c1ccc(C[C@@H]2CC[C@H]([C@H](O)c3ccccc3)N2)cc1)N1CC2CCC(C1)C2n1cnnn1 (stereo partly shown) [Example 63] showed an EC50 [2] of 1 to 9.9 nM.

Work on CC(C(=O)NC1CCNC1=O)N1CCN(C(=O)c2ccc(C[C@@H]3CC[C@H]([C@H](O)c4ccccc4)N3)cc2)CC1 (stereo partly shown) [Example 458] yielded an EC50 [4] of 100 to 999 nM.

Cn1cc(C2CCN(C(=O)c3ccc(C[C@@H]4CC[C@H]([C@H](O)c5ccccc5)N4)cc3)CC2)nn1 [Example 97] showed an EC50 [6] of 100 to 999 nM.

O=C(c1ccc(C[C@@H]2CC[C@H]([C@H](O)c3ccccc3)N2)cc1)N1CCCCC1 [Example 67] was tested, and the EC50 [6] was 100 to 999 nM.

Work on O=C(c1ccc(C[C@@H]2CC[C@H]([C@H](O)c3ccccc3)N2)cc1)N1CCCC2(CCc3cc(F)ccc3O2)C1 (stereo partly shown) [Example 44] yielded an EC50 [2] of 100 to 999 nM.

Compound COC(=O)C1CC2(CCN(C(=O)c3ccc(C[C@@H]4CC[C@H]([C@H](O)c5ccccc5)N4)cc3)CC2)c2ccccc21 (stereo partly shown) [Example 320] has an EC50 [1] of 10 to 99.9 nM.

CN(C)C1CCN(C(=O)c2ccc(C[C@@H]3CC[C@H]([C@H](O)c4ccccc4)N3)cc2)C1 (stereo partly shown) [Example 9] was tested, and the EC50 [2] was 100 to 999 nM.

CC(C(=O)N1CC=CCC1)N1CCN(C(=O)c2ccc(C[C@@H]3CC[C@H]([C@H](O)c4ccccc4)N3)cc2)CC1 (stereo partly shown) [Example 492] showed an EC50 [4] of 10 to 99.9 nM.

Compound O=C(c1ccc(C[C@@H]2CC[C@H]([C@H](O)c3ccccc3)N2)cc1)N1CCC2(CC1)OCCS2(=O)=O [Example 303] has an EC50 [1] of 10 to 99.9 nM.

COC(=O)c1ccccc1C1CCN(C(=O)c2ccc(C[C@@H]3CC[C@H]([C@H](O)c4ccccc4)N3)cc2)CC1 [Example 111] showed an EC50 [6] of 10 to 99.9 nM.

Compound C[C@H](c1ccccn1)N1C2CCC1C1CCC2N1C(=O)c1ccc(C[C@@H]2CC[C@H]([C@H](O)c3ccccc3)N2)cc1 [Example 525] has an EC50 (human β3 functional activity) of 10 to 99.9 nM.

O=C(c1ccc(C[C@@H]2CC[C@H]([C@H](O)c3ccccc3)N2)cc1)N1CCC(S(=O)(=O)c2ccc(Cl)cc2)CC1 [Example 136] showed an EC50 [6] of 10 to 99.9 nM.
